# Results taken from US8207090B2, “Process for the anti-germination and/or biocide treatment of bulbs or tubers by means of CIPC and a terpene or terpene oil” (Xeda International, priority 2005, dated 2012).
# Tests used:
# [1] = in conventional solvents, cited from earlier work
# [2] = Solubility of CIPC in solvents / terpenes; type: physicochemical; conditions: with terpenes/terpene oils, at ambient temperature and as low as 0° C.
# Description: Furthermore, CIPC dissolves with difficulty in conventional solvents, and maximum CIPC concentrations of approximately 30% (weight/volume) are generally obtained. At best, concentrations of approximately 54% at […] have been obtained. This low solubility entails the use of large amounts of solvent and/or formulation in order to obtain the required amounts of active ingredient. Nevertheless, efforts are generally made to limit the use of these solvents owing to their inherent toxicity and/or the danger of use that they entail, especially as a result of their low boiling points, which result in high risks of flammability.
# It has now been discovered, and this is one of the subjects of the present invention, that terpenes and/or terpene oils, in particular eugenol, isoeugenol or clove oil, have a high capacity to dissolve CIPC, even in cases in which the two agents are applied separately. In particular, the use of terpenes and/or terpene oils of this type, applied before or after the CIPC, allows improved distribution of the CIPC on the potatoes. The separate application of the terpene or terpene oil therefore allows improved application, and accordingly penetration and efficacy, of the CIPC. […]
# potatoes = conditions: cited from earlier work; for Inhibition of tuber sprouts: in combination with CIPC
smiles,measurement,setting,value
"CC(C)OC(=O)Nc1cccc(Cl)c1 [CIPC, 3-chlorophenylisopropylcarbamate]","CIPC concentration, at best",[1]; at 180° C.,approximately 54%
same,Maximum CIPC concentration,[1],approximately 30 % (weight/volume)
same,CIPC concentration,[2],greater than 50 % by weight of CIPC relative to the total volume of the solution
C=C(C)C1CC=C(C)C(=O)C1 (stereo not drawn) [carvone],Treated batches of potatoes suitable for sale,"potatoes; dosage of 16.6 ppm, agent on its own",0%
CC/C=C\CC1=C(C)CCC1=O [jasmone],Inhibition of tuber sprouts,potatoes,does not produce positive results
C=C(C)[C@H]1CC=C(C)CC1 [limonene],Inhibition of tuber sprouts,potatoes,does not produce positive results
